According to patent US20260022142A1, “MACROCYCLIC IMMUNOMODULATORS” (Bristol-Myers Squibb Company, priority 2022, published 2026):
Bridge positions count the residues as written; N and C are the ends. Square brackets hold non-standard residues; d marks the D form. Peptide text beside a SMILES is read from it. * marks the point of attachment. ξ: configuration not given here. Ala(morpholin-4-yl) = N[C@@H](CN1CCOCC1)C(=O)O; Phe(4-CONH2) = NC(=O)c1ccc(C[C@H](N)C(=O)O)cc1; Phe(4-COOH) = N[C@@H](Cc1ccc(C(=O)O)cc1)C(=O)O; Bip = N[C@@H](Cc1ccc(-c2ccccc2)cc1)C(=O)O; Phe(3-Me) = Cc1cccc(C[C@H](N)C(=O)O)c1; Phe(2-Me) = Cc1ccccc1C[C@H](N)C(=O)O; Val(3-OH) = CC(C)(O)[C@H](N)C(=O)O; hArg = N=C(N)NCCCC[C@H](N)C(=O)O; 4Pal = N[C@@H](Cc1ccncc1)C(=O)O; Cha = N[C@@H](CC1CCCCC1)C(=O)O; Cit = NC(=O)NCCC[C@H](N)C(=O)O; Thr(3ξ) = CC(O)[C@H](N)C(=O)O; 12Ado = NCCCCCCCCCCCC(=O)O; hSer = N[C@@H](CCO)C(=O)O; Carboxymethyl = O=C(O)C*; Orn = NCCC[C@H](N)C(=O)O; Pra = C#CC[C@H](N)C(=O)O; Aun = NCCCCCCCCCCC(=O)O; Dab = NCC[C@H](N)C(=O)O; Dap = NC[C@H](N)C(=O)O; AEEA = NCCOCCOCC(=O)O

Molecular target: T1, PD-1/PD-L1 interaction (PE-labeled human PD-L1-Ig binding to Jurkat cell line over-expressing human PD-1) (Homo sapiens, UniProt Q15116)
T1 construct: expressed in transfected cells; host or cells: Jurkat
T1 sequence (Q15116 25-288): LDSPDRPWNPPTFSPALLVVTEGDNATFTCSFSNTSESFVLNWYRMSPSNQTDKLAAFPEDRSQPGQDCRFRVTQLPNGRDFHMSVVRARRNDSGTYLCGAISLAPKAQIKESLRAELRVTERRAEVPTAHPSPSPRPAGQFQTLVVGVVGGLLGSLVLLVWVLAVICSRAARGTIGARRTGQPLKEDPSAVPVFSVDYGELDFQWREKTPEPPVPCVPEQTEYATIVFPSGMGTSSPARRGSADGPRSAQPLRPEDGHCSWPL
Assay: Jurkat-PD-1 Cell Binding High-Content Screening Assay (CBA)
Type: cell-based
Conditions: Jurkat cell line over-expressing human PD-1; PE-labeled PD-L1-Ig 20 nM final; read-out: Jurkat hPD1-PDL1 IC50
Summary of the method: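 Jurkat cells over-expressing human PD-1 (8×10^3 per well, DMEM/10% FCS) preincubated with compound 2 h at 37° C, then PE-labeled human PD-L1-Ig (20 nM final) added for 1 h. Cells fixed with paraformaldehyde, Hoechst-stained, and bound fluorescence quantified by high-content imaging.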

Row | Compound | IC50
1 | Cc1cccc(C[C@@H]2NC(=O)[C@H](CC(=O)O)NC(=O)[C@H](Cc3ccc(OCC(=O)O)cc3)NC(=O)[C@H](CCCCNC(=N)N)NC(=O)CSC[C@@H](C(=O)NCC(=O)NCCOCCOCC(=O)N[C@@H](CCC(=O)O)C(=O)NCCCCCCCCCCCC(=O)O)NC(=O)[C@H](CO)NC(=O)[C@H](C(C)C)NC(=O)[C@H](CC3CCCCC3)NC(=O)[C@H](CCN)NC(=O)[C@@H](CC(C)C)NC(=O)[C@H](CCCN)NC(=O)[C@H](CCCNC(N)=O)NC(=O)[C@H](Cc3ccc(-c4ccccc4)cc3)NC(=O)[C@H](C(C)C)NC2=O)c1 [Compound 3185] ({CH2CO}-[hArg]Y(Carboxymethyl)D[Phe(3-Me)]V[Bip][Cit][Orn][dL][Dab][Cha]VSCG[AEEA]E[12Ado]-OH; thioether N-14) | 17.6 nM
2 | Cc1cccc(C[C@@H]2NC(=O)[C@H](CC(=O)O)NC(=O)[C@H](Cc3ccc(OCC(=O)O)cc3)NC(=O)[C@H](CN)NC(=O)CNC[C@@H](C(=O)N[C@@H](CCN)C(=O)NCCCCCCCCCCC(=O)O)NC(=O)[C@H]([C@@H](C)O)NC(=O)[C@H](C(C)C)NC(=O)[C@H](CC3CCCCC3)NC(=O)[C@H](CCN)NC(=O)[C@@H](CC(C)C)NC(=O)[C@H](CCCN)NC(=O)[C@H](CCCNC(N)=O)NC(=O)[C@H](Cc3ccc(-c4ccccc4)cc3)NC(=O)[C@H](C(C)C)NC2=O)c1 [Compound 2160] | 42.6 nM
3 | Cc1cccc(C[C@@H]2NC(=O)[C@H](CC(=O)O)NC(=O)[C@H](Cc3ccc(OCC(=O)O)cc3)NC(=O)[C@H](CN)NC(=O)CSC[C@@H](C(=O)N[C@@H](CCN)C(=O)NCCOCCOCC(=O)NCCCCCCCCCCC(=O)O)NC(=O)[C@H](CCC(=O)O)NC(=O)[C@H](C(C)C)NC(=O)[C@H](Cc3ccccc3C)NC(=O)[C@H](CCN)NC(=O)[C@@H](CC(C)C)NC(=O)[C@H](CCCN)NC(=O)[C@H](Cc3ccc(OCC(=O)O)cc3)NC(=O)[C@H](Cc3ccc(-c4ccccc4)cc3)NC(=O)[C@H](Cc3ccc(C(=O)O)cc3)NC2=O)c1 [Compound 1274] ({CH2CO}-[Dap]Y(Carboxymethyl)D[Phe(3-Me)][Phe(4-COOH)][Bip]Y(Carboxymethyl)[Orn][dL][Dab][Phe(2-Me)]VEC[Dab][AEEA][Aun]-OH; thioether N-14) | 9.8 nM
4 | Cc1cccc(C[C@@H]2NC(=O)[C@H](CC(=O)O)NC(=O)[C@H](Cc3ccc(OCC(=O)O)cc3)NC(=O)[C@H](CCCNC(=N)N)NC(=O)CSC[C@@H](C(=O)N[C@@H](CCO)C(=O)N[C@@H](CCC(=O)O)C(=O)NCCCCCCCCCCCC(=O)O)NC(=O)[C@H](C(C)O)NC(=O)[C@H](C(C)C)NC(=O)[C@H](CC3CCCCC3)NC(=O)[C@H](CCN)NC(=O)[C@@H](CC(C)C)NC(=O)[C@H](CCCN)NC(=O)[C@H](CCCNC(N)=O)NC(=O)[C@H](Cc3ccc(-c4ccccc4)cc3)NC(=O)[C@H](C(C)C)NC2=O)c1 (stereo partly drawn) [Compound 3564] ({CH2CO}-RY(Carboxymethyl)D[Phe(3-Me)]V[Bip][Cit][Orn][dL][Dab][Cha]V[Thr(3ξ)]C[hSer]E[12Ado]-OH; thioether N-14) | 19.5 nM
5 | Cc1cccc(C[C@@H]2NC(=O)[C@H](CC(=O)O)NC(=O)[C@H](Cc3ccc(OCC(=O)O)cc3)NC(=O)[C@H](CN)NC(=O)CSC[C@@H](C(=O)N[C@@H](C)C(=O)N[C@@H](CCCCN)C(=O)NCC(=O)NCCCCCCCCCCC(=O)O)NC(=O)[C@H]([C@@H](C)O)NC(=O)[C@H](C(C)C)NC(=O)[C@H](CC3CCCCC3)NC(=O)[C@H](CCN)NC(=O)[C@@H](CC(C)C)NC(=O)[C@H](CCCN)NC(=O)[C@H](CCCNC(N)=O)NC(=O)[C@H](Cc3ccc(-c4ccccc4)cc3)NC(=O)[C@H](C(C)C)NC2=O)c1 [Compound 1066] ({CH2CO}-[Dap]Y(Carboxymethyl)D[Phe(3-Me)]V[Bip][Cit][Orn][dL][Dab][Cha]VTCAKG[Aun]-OH; thioether N-14) | 13.9 nM
6 | CC(C)C[C@H]1NC(=O)[C@H](CCCN)NC(=O)[C@H](C(C)C)NC(=O)[C@H](Cc2ccc(-c3ccccc3)cc2)NC(=O)[C@H](C(C)C)NC(=O)[C@H](Cc2c[nH]c3ccccc23)NC(=O)[C@H](CC(=O)O)NC(=O)[C@H](Cc2ccc(C(=O)O)cc2)NC(=O)[C@H](Cc2ccc(OCC(=O)O)cc2)NC(=O)CSC[C@@H](C(=O)N[C@@H](CCN)C(=O)NCCOCCOCC(=O)NCCCCCCCCCCC(=O)O)NC(=O)[C@H](CCCCN)NC(=O)[C@H](C(C)C)NC(=O)[C@H](CC2CCCCC2)NC(=O)[C@H](CCN)NC1=O [Compound 2547] ({CH2CO}-Y(Carboxymethyl)[Phe(4-COOH)]DWV[Bip]V[Orn][dL][Dab][Cha]VKC[Dab][AEEA][Aun]-OH; thioether N-14) | 31.9 nM
7 | Cc1cccc(C[C@@H]2NC(=O)[C@H](CC(=O)O)NC(=O)[C@H](Cc3ccc(OCC(=O)O)cc3)NC(=O)[C@H](CCCCNC(=N)N)NC(=O)CSC[C@@H](C(=O)N[C@@H](CCN)C(=O)NCCCCCCCCCCC(=O)O)NC(=O)[C@H](C(C)O)NC(=O)[C@H](C(C)C)NC(=O)[C@H](CC3CCCCC3)NC(=O)[C@H](CCN)NC(=O)[C@@H](CC(C)C)NC(=O)[C@H](CCCN)NC(=O)[C@H](CCCNC(N)=O)NC(=O)[C@H](Cc3ccc(-c4ccccc4)cc3)NC(=O)[C@H](C(C)C)NC2=O)c1 (stereo partly drawn) [Compound 3302] ({CH2CO}-[hArg]Y(Carboxymethyl)D[Phe(3-Me)]V[Bip][Cit][Orn][dL][Dab][Cha]V[Thr(3ξ)]C[Dab][Aun]-OH; thioether N-14) | 14.1 nM

Continued, values first:

Row | IC50 | Compound
8 | 25.6 nM | Cc1cccc(C[C@@H]2NC(=O)[C@H](CC(=O)O)NC(=O)[C@H](Cc3ccc(OCC(=O)O)cc3)NC(=O)[C@H](Cc3ccncc3)NC(=O)CSC[C@@H](C(=O)N[C@@H](CCN)C(=O)NCCCCCCCCCCC(=O)O)NC(=O)[C@H](C(C)O)NC(=O)[C@H](C(C)(C)O)NC(=O)[C@H](CC3CCCCC3)NC(=O)[C@H](Cc3cnc[nH]3)NC(=O)[C@@H](CC(C)C)NC(=O)[C@H](CCCN)NC(=O)[C@H](Cc3ccc(O)cc3)NC(=O)[C@H](Cc3ccc(-c4ccccc4)cc3)NC(=O)[C@H](Cc3ccc(C(N)=O)cc3)NC2=O)c1 (stereo partly drawn) [Compound 3728] ({CH2CO}-[4Pal]Y(Carboxymethyl)D[Phe(3-Me)][Phe(4-CONH2)][Bip]Y[Orn][dL]H[Cha][Val(3-OH)][Thr(3ξ)]C[Dab][Aun]-OH; thioether N-14)
9 | 5.6 nM | Cc1cccc(C[C@@H]2NC(=O)[C@H](CC(=O)O)NC(=O)[C@H](Cc3ccc(OCC(=O)O)cc3)NC(=O)[C@H](CC3CCCCC3)NC(=O)CSC[C@@H](C(=O)N[C@@H](CCN)C(=O)NCCOCCOCC(=O)NCCCCCCCCCCC(=O)O)NC(=O)[C@H](CO)NC(=O)[C@H](C(C)(C)O)NC(=O)[C@H](CC3CCCCC3)NC(=O)[C@H](CCN)NC(=O)[C@@H](CC(C)C)NC(=O)[C@H](CCCN)NC(=O)[C@H](Cc3ccc(OCC(=O)O)cc3)NC(=O)[C@H](Cc3ccc(-c4ccccc4)cc3)NC(=O)[C@H](Cc3ccc(OCC(=O)O)cc3)NC2=O)c1 [Compound 1263] ({CH2CO}-[Cha]Y(Carboxymethyl)D[Phe(3-Me)]Y(Carboxymethyl)[Bip]Y(Carboxymethyl)[Orn][dL][Dab][Cha][Val(3-OH)]SC[Dab][AEEA][Aun]-OH; thioether N-14)
10 | 38.2 nM | Cc1cccc(C[C@@H]2NC(=O)[C@H](CC(=O)O)NC(=O)[C@H](Cc3ccc(OCC(=O)O)cc3)NC(=O)[C@H](Cc3ccc(OCC(=O)O)cc3)NC(=O)CSC[C@@H](C(=O)N[C@@H](CCN)C(=O)NCCCCCCCCCCC(=O)O)NC(=O)[C@H](C(C)O)NC(=O)[C@H](C(C)C)NC(=O)[C@H](CC3CCCCC3)NC(=O)[C@H](CCN)NC(=O)[C@@H](CC(C)C)NC(=O)[C@H](CCCN)NC(=O)[C@H](Cc3ccc(OCC(=O)O)cc3)NC(=O)[C@H](Cc3ccc(-c4ccccc4)cc3)NC(=O)[C@H](C(C)C)NC2=O)c1 (stereo partly drawn) [Compound 2263] ({CH2CO}-Y(Carboxymethyl)Y(Carboxymethyl)D[Phe(3-Me)]V[Bip]Y(Carboxymethyl)[Orn][dL][Dab][Cha]V[Thr(3ξ)]C[Dab][Aun]-OH; thioether N-14)
11 | 9 nM | C#CC[C@H](NC(=O)[C@H](CCN)NC(=O)[C@@H]1CSCC(=O)N[C@@H](CN2CCOCC2)C(=O)N[C@@H](Cc2ccc(OCC(=O)O)cc2)C(=O)N[C@@H](CC(=O)O)C(=O)N[C@@H](Cc2cccc(C)c2)C(=O)N[C@@H](Cc2ccc(OCC(=O)O)cc2)C(=O)N[C@@H](Cc2ccc(-c3ccccc3)cc2)C(=O)N[C@@H](Cc2ccc(OCC(=O)O)cc2)C(=O)N[C@@H](CCCN)C(=O)N[C@H](CC(C)C)C(=O)N[C@@H](CCN)C(=O)N[C@@H](CC2CCCCC2)C(=O)N[C@@H](C(C)(C)O)C(=O)N[C@@H](CO)C(=O)N1)C(=O)NCCCCCCCCCCC(=O)O [Compound 1279] ({CH2CO}-[Ala(morpholin-4-yl)]Y(Carboxymethyl)D[Phe(3-Me)]Y(Carboxymethyl)[Bip]Y(Carboxymethyl)[Orn][dL][Dab][Cha][Val(3-OH)]SC[Dab][Pra][Aun]-OH; thioether N-14)
12 | 2.6 nM | Cc1cccc(C[C@@H]2NC(=O)[C@H](CC(=O)O)NC(=O)[C@H](Cc3ccc(OCC(=O)O)cc3)NC(=O)[C@H](CCN)NC(=O)CSC[C@@H](C(=O)N[C@@H](CCN)C(=O)NCCOCCOCC(=O)NCCOCCOCC(=O)NCCCCCCCCCCC(=O)O)NC(=O)[C@H](Cc3cnc[nH]3)NC(=O)[C@H](C(C)C)NC(=O)[C@H](CC3CCCCC3)NC(=O)[C@H](CCN)NC(=O)[C@@H](CC(C)C)NC(=O)[C@H](CCCN)NC(=O)[C@H](Cc3ccc(C(=O)O)cc3)NC(=O)[C@H](Cc3ccc(-c4ccccc4)cc3)NC(=O)[C@H](Cc3ccc(C(=O)O)cc3)NC2=O)c1 [Compound 3757] ({CH2CO}-[Dab]Y(Carboxymethyl)D[Phe(3-Me)][Phe(4-COOH)][Bip][Phe(4-COOH)][Orn][dL][Dab][Cha]VHC[Dab][AEEA][AEEA][Aun]-OH; thioether N-14)
